Test results reported in paper PMC5947539, “Cyclometalated iridium(III) complexes as lysosome-targeted photodynamic anticancer and real-time tracking agents” (Chemical Science, 2015).
Like-named read-outs stand apart in the source and are kept apart here.

Experiments:
A549 cells [1] = experiment: (Photo)cytotoxicity, MTT assay, A549; assay type: cell-based, human; conditions: for PI (phototoxicity index) / IC50: A549; for PI (phototoxicity index): IC50 dark / IC50 light
Protocol: (§1) Cell lines and culture conditions
(§2) A549, A549cisR, MCF-7 and LO2 cells were obtained from Experimental Animal Center of Sun Yat-sen University (Guangzhou, China). Cells were maintained in DMEM (Dulbecco’s modified […]
(§3) medium, which contained 10% FBS (fetal bovine serum, Gibco BRL), 100 ȝg/mL streptomycin (Gibco BRL), and 100 U/mL penicillin (Gibco BRL). The cells were cultured in a humidified […]
(§4) In each experiment, cells treated with vehicle control (1% DMSO) were kept as the reference group.
(§5) The cytotoxicity in the dark and phototoxicity of the tested compounds toward A549, A549cisR, MCF-7 and LO2 cell lines was determined by MTT assay.
(§6) For cytotoxicity in the dark, cells cultured in 96-well plates were grown to confluence. The compounds were dissolved in DMSO (1%, v/v), and diluted with fresh media immediately. the cells were incubated with a series of concentrations of the tested compounds for 44 h at 37 °C. 20 ȝL of MTT solution was then added to each well, and the plates were incubated for an additional 4 h. The media was carefully removed, and DMSO was added (150 µL per well) and incubated for 10 min with shaking. The absorbance at 595 nm was measured using a microplate reader (Infinite M200 Pro, Tecan, Männedorf, Switzerland).
(§7) For phototoxicity, the cells were incubated with the tested compounds for 12 h. The media containing the iridium complexes was removed and fresh media without the complexes was added.
(§8) After another 32 h of incubation, MTT was added. The cytotoxicity was determined as described

A549 cells [2] = conditions: A549, 0.5 μM with light (36 J cm–2)
Protocol: Annexin V/propidium iodide double staining assay
The assay was performed according to the manufacturer's (Sigma Aldrich, USA) protocol. A549 cells
a 425 nm LED light array (40 mW cmí2) at different light doses (12, 24 or 36 J cmí2).
necessary, the cells were incubated with NaN3 (10 mM) for 1 h before PDT treatment. For flow
cytometry analysis, the cells were harvested and re-suspended in 500 ȝL annexin-binding buffer (10
mM HEPES, 140 mM NaCl, 2.5 mM CaCl2, pH 7.4). The cell suspension was stained with 5 ȝL
annexin V and 10 ȝL propidium iodide at room temperature for 15 min in the dark, and then
analyzed immediately by flow cytometry (FACSCaliburTM, Becton Dickinson, NJ, USA). The
resulting dot blots were analyzed by FlowJo Software (Tree Star, OR, USA). For confocal
microscopy analysis, the cells were washed twice with PBS, and then incubated with 500 ȝL annexin-binding buffer supplemented with 5 ȝL annexin V and 10 ȝL propidium iodide at room
temperature for 15 min in the dark. The samples were visualized immediately by confocal
microscopy (LSM 710, Carl Zeiss, Göttingen, Germany). Emission was collected at 530 ± 20 nm
(annexin V) and 620 ± 20 nm (propidium iodide) upon excitation at 488 nm.

[3] = system: caspase-3/7 activity in A549 cells; experiment: Caspase-3/7 activity assay (Caspase-Glo); assay type: cell-based, human; conditions: for increase in caspase-3/7 activity: vs control cells in the dark
Protocol: (§9) concentrations for 24 h with or without light irradiation. After A549 cells were incubated with 2 for 12 h, the cells were irradiated with a 425 nm LED light array (40 mW cmí2) for 15 min (36 J cmí2).
(§10) When necessary, the cells were incubated with NaN3 (10 mM) for 1 h before PDT treatment. The cells were washed twice with PBS gently and fixed with 4% paraformalclehyde for 30 min at room temprature. The cells were washed with PBS twice, and then Hoechst 33342 (5 µg/mL) in PBS was added to the media by gently shaking in the dark for 10 min. The cells were washed with PBS twice and visualized by confocal microscopy (LSM 710, Carl Zeiss, Göttingen, Germany). Emission was collected at 460 ± 20 nm upon excitation at 405 nm.
Caspase-3/7 activity assay
Caspase-3/7 activity was measured using Caspase-Glo® Assay kit (Promega, Madison, WI, USA) according to the manufacturer's instructions. Briefly, cells were cultured in 96-well plates and treated […]
incubated with 2 or cisplatin for 12 h, the cells were irradiated with a 425 nm LED light array (40 mW cmí2) for 15 min (36 J cmí2). 100 µL of Caspase-Glo® 3/7 reagent was added to each well containing 100 µL culture media. The mixture was incubated at room temperature for 1 h and then the luminescence was measured using a microplate reader (Infinite M200 Pro, Tecan, Männedorf, […]
The cells were further treated with 10 ȝM DCF-DA for 20 min at 37 °C in the dark and then then irradiated with a 425 nm LED light array (40 mW cmí2) for 15 min (36 J cmí2). After the treatment, the cells were harvested and washed twice with serum-free RPMI 1640, the fluorescence intensity of DCF in A549 cells was measured by flow cytometry (FACSCaliburTM, Becton Dickinson, Franklin Lakes, NJ, USA). The results were analyzed by FlowJo Software (Tree Star, OR, USA). […]
(§11) concentrations for 12 h and then irradiated with a 425 nm LED light array (40 mW cmí2) for 15 min

A549cisR cells = experiment: (Photo)cytotoxicity, MTT assay, A549cisR; assay type: cell-based, human; conditions: for PI (phototoxicity index): IC50 dark / IC50 light
Protocol: as §1, §2, §3, §4, §5, §6, §7, §8

MCF-7 cells = experiment: (Photo)cytotoxicity, MTT assay, MCF-7; assay type: cell-based, human; conditions: for PI (phototoxicity index): IC50 dark / IC50 light
Protocol: as §1, §2, §3, §4, §5, §6, §7, §8

A549 cells [4] = conditions: A549, 0.5 μM with light (36 J cm–2), vs control cells treated with light alone
Protocol: as §9
as §10, with “nm. […]” for “nm.”
Caspase-3/7 activity was measured using Caspase-Glo® Assay kit (Promega, Madison, WI, USA) according to the manufacturer's instructions. […]
incubated with 2 or cisplatin for 12 h, the cells were irradiated with a 425 nm LED light array (40 mW cmí2) for 15 min (36 J cmí2). […] The mixture was incubated at room temperature for 1 h and then the luminescence was measured using a microplate reader (Infinite M200 Pro, Tecan, Männedorf, […]
The cells were further treated with 10 ȝM DCF-DA for 20 min at 37 °C in the dark and then then irradiated with a 425 nm LED light array (40 mW cmí2) for 15 min (36 J cmí2). […] The results were analyzed by FlowJo Software (Tree Star, OR, USA). […]

A549 and LO2 cells = conditions: 0.5 μM, light 36 J cm–2, annexin V/propidium iodide staining
Protocol: as §11

LO2 cells = experiment: (Photo)cytotoxicity, MTT assay, LO2; assay type: cell-based, human; conditions: for PI (phototoxicity index): IC50 dark / IC50 light
Protocol: as §1, §2, §3, §4, §5, §6, §7, §8

[5] = dark, incubated 48 h, read-out: IC50 Dark
[6] = incubated 12 h then 425 nm LED 15 min (36 J cm–2), read-out: IC50 (light) (converted)
[7] = Homo sapiens, dark, incubated 48 h, read-out: IC50 Dark
[8] = Homo sapiens, incubated 12 h then 425 nm LED 15 min (36 J cm–2), read-out: IC50 (light) (converted)
[9] = Homo sapiens, L02, dark, incubated 48 h, read-out: IC50 Dark
[10] = Homo sapiens, L02, incubated 12 h then 425 nm LED 15 min (36 J cm–2), read-out: IC50 (light) (converted)

Molecule | PI (phototoxicity index) (A549 cells [1]) | IC50 (A549 cells [1]; [5]) [µM] | IC50 (A549 cells [1]; [6]) [µM] | PI (phototoxicity index) (A549cisR cells) | IC50 (A549cisR cells; [5]) [µM] | IC50 (A549cisR cells; [6]) [µM] | PI (phototoxicity index) (MCF-7 cells) | IC50 (LO2 cells; [5]) [µM] | IC50 (LO2 cells; [6]) [µM] | IC50 (A549 cells [1]; [7]) [µM] | IC50 (A549 cells [1]; [8]) [µM] | IC50 (A549cisR cells; [7]) [µM] | IC50 (A549cisR cells; [8]) [µM] | IC50 (LO2 cells; [9]) [µM] | IC50 (LO2 cells; [10]) [µM] | PI (phototoxicity index) (LO2 cells) | also measured
[Ir(N^C)2(N^N)](PF6) in which N^C = 2-phenylpyridine and N^N = 1-(2-benzimidazolyl)-β-carboline [Complex 2] | >833 | ≥ 100 | 0.12 | >625 | > 100 | 0.16 | > 769 | > 100 | 4.4 |  |  |  |  |  |  |  | fold higher phototoxicity against A549 cells than against LO2 cells (A549 cells [1]; light IC50 A549 vs LO2): over 36 fold; percentage of apoptotic cells (A549 cells [2]): 69.7%; increase in caspase-3/7 activity ([3]; A549, 0.5 μM and light (36 J cm–2)): approximately 5.7 fold; increase in caspase-3/7 activity ([3]; A549, compound alone (dark)): negligible increase; IC50 (MCF-7 cells; incubated 12 h then 425 nm LED 15 min (36 J cm-2), read-out: IC50 Light): 0.13 ± 0.02 µM; increase in the mean fluorescence intensity of DCF (A549 cells [4]): ca. 17 fold; selectivity of PDT in A549/LO2 co-culture (A549 and LO2 cells): high selectivity towards cancer over normal cells
c1ccc2c(c1)[nH]c1c(-c3ncc[nH]3)nccc12 [Complex L1, 1-(2-imidazolyl)-β-carboline, reference compound] | >5.7 |  |  | 2.2 |  |  | 16.3 |  |  | > 100 | 17.6 | 42.6 ± 3.8 | 19.7 | > 100 | 47.4 | >2.1 | 
c1ccc2[nH]c(-c3nccc4c3[nH]c3ccccc34)nc2c1 [Complex L2, 1-(2-benzimidazolyl)-β-carboline] |  |  |  |  |  |  |  |  |  | > 100 | > 100 | > 100 | > 100 | > 100 | > 100 |  | 
Ir2(dfppy)4Cl2 [reference compound] | 1.2 | 11.5 ± 1.5 | 9.3 | 1.0 | 4.3 ± 0.5 | 4.2 | 5.2 | 29.6 ± 3.1 | 21.5 |  |  |  |  |  |  | 1.4 | 
Ir2(ppy)4Cl2 [reference compound] | 1.7 | 19.6 ± 2.6 | 11.4 | 2.9 | 20.2 ± 2.3 | 7 | 4.3 | 28.5 ± 2.4 | 21.3 |  |  |  |  |  |  | 1.3 | 
N.N.[Cl][Pt][Cl] [Cisplatin, reference compound] | 1.0 | 23.3 ± 2.6 | 22.6 | 1.0 | 85.5 ± 5.3 | 86.1 | 1.1 | 31.2 ± 2.7 | 30.5 |  |  |  |  |  |  | 1.0 | effect of light irradiation on caspase-3/7 activation ([3]; A549, 425 nm light (36 J cm–2)): no effect
